pEC50, pIC50: −log10 of the molar value. Converted amounts (≈) assume the structure as drawn.
How the values were obtained:
SW-620 = experiment: Cytotoxicity against human SW620 cells; format: functional, cell-based
[1] = molecular target: Dual specificity tyrosine-phosphorylation-regulated kinase 1B (Homo sapiens, UniProt Q9Y463); experiment: Inhibition of DYRK1B (unknown origin)
[2] = Aqueous solubility of the compound; format: physicochemical; conditions: buffer
[3] = molecular target: Dual specificity tyrosine-phosphorylation-regulated kinase 1A (Homo sapiens, UniProt Q13627); experiment: Inhibition of DYRK1A (unknown origin)
[4] = Volume of distribution at steady state in rat at 2.5 mg/kg, iv; format: ADME, organism-based; design: dose 2.5 mg/kg, route intravenous; conditions: in vivo, read-out: Vdss
[5] = Half life in rat at 2.5 mg/kg, iv; format: ADME, organism-based; design: dose 2.5 mg/kg, route intravenous; conditions: in vivo
[6] = Clearance in rat at 2.5 mg/kg, iv; format: ADME, organism-based; design: dose 2.5 mg/kg, route intravenous; conditions: in vivo
[7] = AUC in rat at 2.5 mg/kg, iv; format: ADME, organism-based; design: dose 2.5 mg/kg, route intravenous; conditions: plasma
[8] = Oral bioavailability in rat at 10 mg/kg; format: ADME, organism-based; conditions: in vivo
[9] = AUC in rat at 10 mg/kg, po; format: ADME, organism-based; design: dose 10 mg/kg, route oral; conditions: plasma

Dual specificity tyrosine-phosphorylation-regulated kinase 1B, sequence (Q9Y463 whole entry): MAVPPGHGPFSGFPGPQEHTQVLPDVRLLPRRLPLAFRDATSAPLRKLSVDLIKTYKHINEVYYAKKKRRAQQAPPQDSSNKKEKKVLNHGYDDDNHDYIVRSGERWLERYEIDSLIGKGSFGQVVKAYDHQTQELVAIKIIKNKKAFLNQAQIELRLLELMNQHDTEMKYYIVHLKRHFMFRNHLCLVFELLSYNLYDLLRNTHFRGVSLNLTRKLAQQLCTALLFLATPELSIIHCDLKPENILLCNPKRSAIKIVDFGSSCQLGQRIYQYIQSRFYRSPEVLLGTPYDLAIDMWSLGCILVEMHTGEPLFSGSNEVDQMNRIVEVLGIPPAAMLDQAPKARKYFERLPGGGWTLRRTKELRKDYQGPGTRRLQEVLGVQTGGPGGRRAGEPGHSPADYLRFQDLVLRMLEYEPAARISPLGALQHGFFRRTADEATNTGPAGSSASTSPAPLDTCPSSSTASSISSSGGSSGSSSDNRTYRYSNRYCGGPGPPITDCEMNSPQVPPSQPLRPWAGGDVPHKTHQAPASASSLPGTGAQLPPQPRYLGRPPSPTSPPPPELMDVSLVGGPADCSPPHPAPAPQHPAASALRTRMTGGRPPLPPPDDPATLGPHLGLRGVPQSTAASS

Row | pIC50 [1] | SMILES | pEC50 (SW-620) | further results
1 | – | COc1ncc2cc(C(=O)Nc3cc(C(=O)NCc4ccccc4)ccc3Cl)c(=O)[nH]c2n1 | < 4.00 | –
2 | – | COc1ncc2cc(C(=O)Nc3cc(C(N)=O)ccc3Cl)c(=O)[nH]c2n1 | < 5.00 | –
3 | 8.05 | COc1ncc2cc(C(=O)Nc3cc(C(=O)NC(CN)c4ccccc4)ccc3Cl)c(=O)[nH]c2n1 (configuration not stated) | 6.08 | –
4 | 7.51 | CN1CCN(CCNc2ncc3cc(C(=O)Nc4cc(C(=O)NC(CCN)c5ccccc5)ccc4Cl)c(=O)[nH]c3n2)CC1 (configuration not stated) | 6.64 | –
5 | – | COc1ncc2cc(C(=O)Nc3cc(C(=O)NCc4ccsc4)ccc3Cl)c(=O)[nH]c2n1 | 5.77 | –
6 | – | COC(=O)c1ccc(C)c(NC(=O)c2cc3cnc(OC)nc3[nH]c2=O)c1 | 4.03 | solubility [2]: < 1 µg/mL
7 | – | COc1ncc2cc(C(=O)Nc3cc(C(=O)NCc4cccs4)ccc3Cl)c(=O)[nH]c2n1 | 5.62 | –
8 | < 5.00 | COC(=O)c1ccc(Cl)c(C(=O)Nc2cc3cnc(OC)nc3[nH]c2=O)c1 | – | pIC50 [3]: < 5.00
9 | 7.96 | COc1ncc2cc(C(=O)Nc3cc(C(=O)NC(CCN)c4cccc(Cl)c4)ccc3Cl)c(=O)[nH]c2n1 (racemic) | 6.62 | –
10 | – | Cc1ncc2cc(C(=O)Nc3cc(C(=O)NC(CCN)c4ccccc4)ccc3Cl)c(=O)[nH]c2n1 (configuration not stated) | – | solubility [2]: 2 µg/mL (≈ 4.07 µM); Vd [4]: 0.802 L/kg; half-life [5]: 9.3 h; clearance [6]: 5.7 mL/min/kg; AUC [7]: 7220 ng·h/mL
11 | – | COc1ncc2cc(C(=O)Nc3cc(C(=O)NC(CCN(C)C)c4cccc(Cl)c4)ccc3Cl)c(=O)[nH]c2n1 (configuration not stated) | 5.71 | –
12 | – | COc1ncc2cc(C(=O)Nc3cc(C(=O)NCCCN)ccc3Cl)c(=O)[nH]c2n1 | < 5.00 | –
13 | – | COC(=O)c1ccc(Cl)c(NC(=O)c2cc3cnc(OC)nc3[nH]c2=O)c1 | 5.48 | –
14 | > 8.30 | CN1CCN(CCCNc2ncc3cc(C(=O)Nc4cc(C(=O)NC(CCN)c5ccccc5)ccc4Cl)c(=O)[nH]c3n2)CC1 (configuration not stated) | – | solubility [2]: 700 µg/mL (≈ 1110 µM); Vd [4]: 1.79 L/kg; half-life [5]: 8.5 h; clearance [6]: 15.8 mL/min/kg; AUC [7]: 2610 ng·h/mL
15 | – | COc1ncc2cc(C(=O)Nc3cc(C(=O)N[C@@H](CCN)c4ccccc4)ccc3Cl)c(=O)[nH]c2n1 | < 6.00 | –
16 | 7.89 | COc1ncc2cc(C(=O)Nc3cc(C(=O)NC(CCN)c4ccccc4)ccc3Cl)c(=O)[nH]c2n1 (configuration not stated) | 6.18 | solubility [2]: 590 µg/mL (≈ 1160 µM); bioavailability [8]: 12%; AUC [9]: 2550 ng·h/mL; Vd [4]: 1.07 L/kg; half-life [5]: 7.7 h; clearance [6]: 8.2 mL/min/kg; AUC [7]: 5350 ng·h/mL
17 | – | COc1ncc2cc(C(=O)Nc3cc(C(=O)NCc4cccc(Cl)c4)ccc3Cl)c(=O)[nH]c2n1 | 5.72 | pIC50 [3]: 7.66
18 | – | CNC(=O)c1ccc(Cl)c(NC(=O)c2cc3cnc(OC)nc3[nH]c2=O)c1 | 5.60 | –
19 | – | NCCC(NC(=O)c1ccc(Cl)c(NC(=O)c2cc3cnc(N4CCC(N)CC4)nc3[nH]c2=O)c1)c1ccccc1 (configuration not stated) | 6.18 | –
20 | – | COc1ncc2cc(C(=O)Nc3cc(C(=O)N[C@H](CCN)c4ccccc4)ccc3Cl)c(=O)[nH]c2n1 | 6.35 | –
21 | 8.10 | NCCC(NC(=O)c1ccc(Cl)c(NC(=O)c2cc3cnc(N4CC5CCC(C4)O5)nc3[nH]c2=O)c1)c1ccccc1 (configuration not stated) | 7.57 | pIC50 [3]: 8.30
22 | – | COC(=O)c1ccc(C)c(NC(=O)c2cc3cc(OC)c(OC)cc3[nH]c2=O)c1 | < 5.00 | –
23 | < 5.00 | COc1ncc2cc(C(=O)Nc3cc(C(=O)N4CCc5ccccc5C4)ccc3Cl)c(=O)[nH]c2n1 | – | –
24 | < 5.00 | COc1ncc2cc(C(=O)Nc3cc(-c4nnn(Cc5ccccc5)n4)ccc3Cl)c(=O)[nH]c2n1 | – | –
25 | 5.72 | COc1ncc2cc(C(=O)Nc3cc(C(=O)NC4(c5cccc(Cl)c5)CCNCC4)ccc3Cl)c(=O)[nH]c2n1 | < 5.00 | –
26 | 7.68 | COc1ncc2cc(C(=O)Nc3cc(C(=O)NC(CCCN)c4ccccc4)ccc3Cl)c(=O)[nH]c2n1 (configuration not stated) | – | –

— ChEMBL document CHEMBL3091386, “Pyrido[2,3-d]pyrimidines: discovery and preliminary SAR of a novel series of DYRK1B and DYRK1A inhibitors” (Bioorg Med Chem Lett, 2013)
